Source: patent publication US11873298B2, “Compounds and uses thereof” (JANSSEN PHARMACEUTICA NV, priority 2017, dated 2024)

Experiments:
[1] = target: T1, SCD1 (Homo sapiens, UniProt O00767); test: Growth inhibition of humanized yeast strain expressing SCD1 as sole desaturase; type: cell-based; conditions: growth inhibition of humanized yeast strain expressing human SCD1
T1 construct: host or cells: S. cerevisiae ole1Δ strain (W303 pdr1Δ pdr3Δ background), plasmid pRS316 with TDH3 promoter and CYC1 terminator
T1 sequence (O00767 1-359): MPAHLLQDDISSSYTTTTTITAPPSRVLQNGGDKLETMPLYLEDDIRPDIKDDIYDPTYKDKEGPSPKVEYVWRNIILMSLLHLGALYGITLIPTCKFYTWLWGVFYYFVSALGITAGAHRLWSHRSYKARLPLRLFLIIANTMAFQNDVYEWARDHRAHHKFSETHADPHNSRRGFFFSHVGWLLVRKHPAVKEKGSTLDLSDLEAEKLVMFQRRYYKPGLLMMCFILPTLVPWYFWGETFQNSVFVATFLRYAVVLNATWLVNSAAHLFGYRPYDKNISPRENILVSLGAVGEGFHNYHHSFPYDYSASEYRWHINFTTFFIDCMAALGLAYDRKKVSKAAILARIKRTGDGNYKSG
Protocol: Strain oleΔ (yeast ole1 deletion mutant) was constructed by deleting OLE1 with NAT-MX6 in BY4741, amplifying the deletion cassette from the genomic DNA of the resulting strain with primers flanking the ORF by 1000 bp upstream and downstream, transforming the resulting deletion cassette into W303 pdr1Δ pdr3Δ, and plating transformants on YPD media containing G418 (200 μg/mL) and nourseothricin ([…]) with 0.01% TWEEN®-20 and 0.5 mM oleic and palmitoleic acids.
The coding sequence of yeast OLE1 was also cloned into this plasmid). These clones were then transformed into the ole1Δ strain and plated on CSM-Ura media (CSM lacking uracil) with 2% glucose (w/v) and independent colonies were isolated and amplified.
All compound profiling experiments were performed using the same basic protocol. Different genetic backgrounds (e.g., gene deletions) or conditions (e.g., addition of oleic and palmitoleic acid) were replaced as indicated below.
Yeast were cultured using standard techniques in complete synthetic media (CSM) and yeast nitrogen base supplemented with 2% (w/v) carbon source (glucose, raffinose, or galactose) to regulate the expression of the toxic disease protein. An initial starter culture was inoculated in 3 mL CSM-Glucose media and incubated overnight in a 30° C. shaker incubator (225 rpm). Saturated morning cultures were then diluted 1:20 in fresh CSM-Raffinose media and grown for 6 h to an OD600 (optical density) of ˜0.4-0.8 at 30° C. with shaking.
Compound administration was performed in two separate steps. First, 15 μL of CSM-Galactose (induces expression of toxic protein) was dispensed into clear 384 well assay plates using a MULTIDROP™ Combi reagent dispenser. […] The cultures described above were then diluted to a 2× concentration (0.03 and 0.08 for alpha-synuclein and ApoE, final ODsoo of 0.015 and 0.04) in CSM-Galactose. For wild-type and Ole1/SCD1/SCD5 plasmid-containing strains, the 2× cell density was 0.02. […] For 96-well assays (FIGS. 1A and 1B), compound dilutions in DMSO were generated in 96 well plates and 1 μL was manually pipetted into 96 well clear bottom assay plates.
For experiments using a plasmid-borne copy of Ole1, SCD1, or SCD5 (FIGS. 3B, 6, and 7), media lacking uracil (SX-Ura, where X is glucose, raffinose, or galactose), was used for all steps of the compound profiling protocol to ensure its maintenance throughout the assay.
After yeast delivery, assay plates were incubated under humidified conditions at 30° C. for 24 to 40 h. ApoE4 rescue experiments were stopped at 24 h, aSyn experiments at 40 h, Ole1 at 24 h, and SCD1/SCD5 at 40 h. The growth of yeast was monitored by reading the ODsoo of each well using a microplate reader (Perkin Elmer EnVision™).

[2] = target: T2, SCD5 (Homo sapiens, UniProt Q86SK9); test: Growth inhibition of humanized yeast strain expressing SCD5 as sole desaturase; type: cell-based; conditions: growth inhibition of humanized yeast strain expressing human SCD5
T2 construct: host or cells: S. cerevisiae ole1Δ strain (W303 pdr1Δ pdr3Δ background), plasmid pRS316 with TDH3 promoter and CYC1 terminator
T2 sequence (Q86SK9 1-330): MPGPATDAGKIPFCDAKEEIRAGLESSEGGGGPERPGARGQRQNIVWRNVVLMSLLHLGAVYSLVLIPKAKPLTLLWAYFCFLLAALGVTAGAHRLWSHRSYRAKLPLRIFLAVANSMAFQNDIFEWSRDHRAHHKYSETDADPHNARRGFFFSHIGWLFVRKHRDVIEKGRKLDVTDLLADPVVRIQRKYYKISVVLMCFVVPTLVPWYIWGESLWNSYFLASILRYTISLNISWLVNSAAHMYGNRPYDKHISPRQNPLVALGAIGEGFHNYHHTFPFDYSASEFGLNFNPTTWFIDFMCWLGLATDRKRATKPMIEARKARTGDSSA
Summary of the method: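 Plasmid-complemented ole1Δ yeast, drug-pump deleted (pdr1Δ pdr3Δ), depend solely on the introduced Ole1, SCD1 or SCD5 desaturase. Compounds are added from DMSO to cells in uracil-free galactose medium, 2× density 0.02, and OD600 is read after 24 h or 40 h respectively.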

| Structure (SMILES) | IC50 [1] [µM] | IC50 [2] [nM] |
| --- | --- | --- |
| CNC(=O)OC1CCC(c2nc(-c3ccc4cnn(C(C)C)c4c3)no2)CC1 (stereo not shown) [Compound 608] | > 45 | > 45000 |
| CNC(=O)O[C@H]1CC[C@H](c2nc(-c3ccc4c(C)nn(C)c4c3)no2)CC1 [Compound 609] | > 45 | > 45000 |
| CC(C)N1C(=O)Cc2ccc(-c3noc(C4CCN(C(=O)OC5(C)CC5)CC4)n3)cc21 [Compound 610] | > 45 | 2160 |
| CC(C)N1C(=O)Cc2ccc(-c3noc(C4CCN(C(=O)CC(C)(C)C)CC4)n3)cc21 [Compound 611] | > 45 | 7480 |
| CC(C)N1C(=O)Cc2ccc(-c3noc(C4CCN(C(=O)c5ccccc5Cl)CC4)n3)cc21 [Compound 612] | > 45 | 2380 |
| Cc1nn(C)c2cc(-c3noc(N4CCN(C(=O)OC5(C)CC5)CC4)n3)ccc12 [Compound 613] | > 45 | > 45000 |
| CCOCC1CCN(c2nc(-c3ccc4cnn(C(C)C)c4c3)no2)CC1 [Compound 614] | > 45 | 13900 |
| CC(C)n1ncc2ccc(-c3noc(C4CCN(Cc5ncco5)CC4)n3)cc21 [Compound 615] | 0.848 | 1880 |
| CC(C)n1ncc2ccc(-c3noc(C4CCN(C(=O)C5CC(=O)N(C)C5(C)C)CC4)n3)cc21 (stereo not shown) [Compound 616] | > 45 | > 45000 |
| CC(C)(C)CC(=O)N1CCC(c2nc(-c3ccc4cnn(C5COC5)c4c3)no2)CC1 [Compound 617] | > 45 | 121 |
| O=C(OC1CC1)N1CCC(c2nc(-c3ccc4cnn(C5COC5)c4c3)no2)CC1 [Compound 618] | > 45 | 101 |
| CC(C)(C)CC(=O)N1CCN(c2nc(-c3ccc4cnn(C5COC5)c4c3)no2)CC1 [Compound 619] | > 45 | 291 |
| CC1(OC(=O)N2CCN(c3nc(-c4ccc5cnn(C6COC6)c5c4)no3)CC2)CC1 [Compound 620] | > 45 | 13 |
| CC(C)(C)OC(=O)N1CCC(c2nc(-c3ccc4cnn(C5COC5)c4c3)ns2)CC1 [Compound 621] | > 45 | 42 |
| COC(=O)N1CCC(F)(c2nc(-c3ccc4cnn(C(C)C)c4c3)no2)CC1 [Compound 622] | > 45 | 1610 |
| CC(C)n1ncc2ccc(-c3noc(C4(F)CCN(C(=O)CC5(C)CC5)CC4)n3)cc21 [Compound 623] | > 45 | 854 |
| CC(C)n1ncc2ccc(-c3noc(C4(F)CCN(C(=O)OC5CC5)CC4)n3)cc21 [Compound 624] | > 45 | 222 |
| CC(C)n1ncc2ccc(-c3noc(C4(F)CCN(C(=O)OC5(C)CC5)CC4)n3)cc21 [Compound 625] | > 45 | 122 |
| CC(C)N1C(=O)Cc2ccc(-c3noc(C4CCN(C(=O)CC5(C)CC5)CC4)n3)cc21 [Compound 626] | > 45 | 2750 |
| COC(=O)N1CCC(c2nc(-c3ccc4c(c3)N(C(C)C)C(=O)C4)no2)CC1 [Compound 627] | > 45 | 6690 |
| CC(C)n1ncc2ccc(-c3nc(C4CCN(C(=O)OC5(C)CC5)CC4)no3)cc21 [Compound 628] | > 45 | 10 |
| COC(=O)N1CCC(c2noc(-c3ccc4cnn(C(C)C)c4c3)n2)CC1 [Compound 629] | > 45 | 30 |
| COC(=O)N1CCN(c2noc(-c3ccc4cnn(C(C)C)c4c3)n2)CC1 [Compound 630] | 10.2 | 14 |
| Cc1nn(C)c2cc(-c3noc(C4CCN(C(=O)[C@H]5CC(=O)N(c6cccc(C#N)c6)C5)CC4(F)F)n3)ccc12 (stereo partly shown) [Compound 631] | > 45 | > 45000 |
| CC(C)n1ncc2ccc(N3CC4(CCN(C(=O)CC(C)(C)C)CC4)C3)cc21 [Compound 632] | > 45 | > 45000 |
| CC(C)(C)OC(=O)N1CC=C(c2nc(-c3ccc4cnn(C5COC5)c4c3)ns2)CC1 [Compound 633] | > 45 | 214 |
